From patent US6037351A, “Method of inhibiting hepatitis B virus” (priority 1996, dated 2000)

Tests used:
[1] = tested on: hepatitis B virus (HBV); assay: Secretion of HBV particles from HepG 2.2.15 and HBV infected HepG2 cells; type: cell-based, HBV in human hepatoma cells
[2] = tested on: hepatitis B virus (HBV); assay: HBV DNA from virions secreted into medium of 2.2.15 cells (Southern blot, densitometry); type: cell-based, HBV in human hepatoma HepG 2.2.15 cells; conditions: six days
Procedure: HepG 2.2.15 cells were grown for 6 days in the presence of the indicated concentration of NBDNJ with one change of medium. After the sixth day (seventh day in culture), cells and medium were collected. Autoradiograms of the viral DNA detected by hybridization of membranes to HBV probes are shown.
FIG. 2A: autoradiogram of a Southern blot of DNA recovered from the medium of 2.2.15 cells maintained in medium without NBDNJ (lanes 1 and 2); and in the following NBDNJ concentrations: 200 μg/ml (lane 3); 500 μg/ml (lane 4); and 1000 μg/ml (lane 5).
HepG2 cells were purchased from the European Collection of Animal Cell Cultures (Porton Down, UK). HepG2 2.15 [2.2.15, Sells and Chen, Proc. Natl. Acad. Sci. USA 84, 1005-1009 (1987)] cells were obtained from Dr. George Acs (Mt. Sinai Medical College, New York, USA).
All tissue cultures were maintained in 5% C02 in RPMI 1640 (GIBCO) medium, supplemented with 10% heat inactivated fetal calf serum (Techgen, London, U.K.), 50 units/ml. of penicillin and streptomycin, 1 mM glutamine (GIBCO). For 2.2.15 cells, 200 μgs/ml. Antibiotic G418 (Genticin, GIBCO) was added to the medium, as in Sells and Chen, Proc. Natl. Acad. Sci. USA 84, 1005-1009 (1987).
Medium from approximately 5×10^6 cells was precipitated with polyethylene glycol (PEG) 8000 (Sigma), after clarification, as in Sells and Chen, Proc. Natl. Acad. Sci. USA 84, 1005-1009 (1987), re-suspended in 0.5 ml. phosphate buffered saline (PBS) and sedimented through a cushion of 20% sucrose in PBS for 5 hours at 50,000 rpm in a Beckman T100.3 rotor (approx. 75,000×g).
DNA was prepared from the pellets as in Sells and Chen, Proc. Natl. Acad. Sci. USA 84, 1005-1009 (1987). […]

[3] = tested on: HBs proteins; assay: Western blot of all HBs proteins in virions, filaments and spheres fractions; type: cell-based, HBV; conditions: medium of NBDNJ treated cultures, FIGS. 5B and 5C
Procedure: (§1) Polyethylene glycol (PEG) precipitates of culture medium (FIG. 5A) or partly purified virions, HBs filaments and spheres from untreated (FIG. 5B) and NBDNJ treated (FIG. 5C) cultures were resolved by SDS-PAGE (13.5% acrylamide), transferred to immobilin paper and incubated with PreS1 and PreS2 specific monoclonal antibody.
(§2) Samples were dissolved in loading buffer, resolved by electrophoresis through 13.5% SDS polyacrylamide gels (SDS-PAGE) and transferred to PVDF (Millipore) membranes and blocked with 5% powdered milk, as in Gultekin and Heerman, Analytical Biochem. 172, 320-329 (1989). After incubation with primary antibody overnight at room temperature in 1% bovine serum albumin (BSA) in TNE and second antibody (peroxidase conjugated goat anti-mouse IgG serum) for 1 hour in TNE at room temperature, membranes were developed in peroxide-diaminobenzidine (Sigma) PBS, as described in the manufacturer's instructions.
(§3) The ELISA results were confirmed by Western blot analysis of fractions from the sucrose gradient containing either intact virus, filaments or spheres (FIGS. 5B, from untreated cultures, and 5C, from NBDNJ treated cultures). […]
(§4) Fractions distal to the virion containing fractions (near the bottom of the gradient) were resolved in lane 1 to show specificity of the antibody. […] The images shown in FIGS. 5B and 5C) were quantified by densitometry.

[4] = tested on: LHBs (PreS1); assay: Western blot of LHBs in sucrose gradient virion fraction; type: cell-based, HBV; conditions: Western blot densitometry, FIG. 5C vs 5B lane 2
Procedure: as §1, §2, §3, §4

[5] = tested on: MHBs (PreS2); assay: Western blot of MHBs in sucrose gradient fractions; type: cell-based, HBV
Procedure: as §1, §2, §3, §4

[6] = stably transfected HepG 2.2.15 cells and HBV infected HepG2 cells

CCCCN1C[C@H](O)[C@@H](O)[C@H](O)[C@H]1CO [NBDNJ, N-butyl-1,5-dideoxy-1,5-imino-D-glucitol]
sensitivity of HBV virions and particles containing LHBs and MHBs vs SHBs enriched particles ([1]; relative to small SHBs enriched particles): more sensitive
intracellular retention of HBV DNA (in words) [1, 6]: cause intracellular retention of HBV DNA
secretion of HBV particles (in words) [1, 6]: suppress the secretion of HBV particles
inhibition at 500 µg/mL ([2]; Hepatitis B virus, 144 h, NBDNJ 500 μg/ml (2.28 mM), densitometry of FIG. 2A, read-out: decrease in virus specific DNA in medium): 90%
inhibition at 1000 µg/mL ([2]; Hepatitis B virus, 144 h, NBDNJ 1000 μg/ml, densitometry of FIG. 2A, read-out: decrease in virus specific DNA in medium): 99%
virus specific DNA obtained from the media of treated cells (in words) ([2]; NBDNJ 200, 500, 1000 μg/ml): clear dose-dependent decrease
amount of all HBs proteins in virions, filaments and spheres [3]: decrease in the amount of all HBs proteins
decrease of LHBs in virion samples compared to untreated [4]: approximately 4 fold
decrease of MHBs in virion samples compared to untreated ([5]; Western blot densitometry, FIG. 5C lane 2 vs FIG. 5B lane 2): 12 fold
decrease in MHBs (PreS2 epitope) (in words) ([5]; medium of NBDNJ treated cultures, FIGS. 5B and 5C): particularly severe
